Biological target: Granzyme B (human lymphocytes) (Homo sapiens (Human), UniProt P10144)
Test: human Granzyme B biochemical assay
Details: Granzyme B (human lymphocytes) 5 nM, substrate Ac-IETD-AFC 200 μM, Cpd incubation with enzyme 30 mins, 22° C., read time 60 mins; read-out: IC50
Outline: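 Enzyme (10 nM working stock, assay buffer with 0.1% BSA) pre-incubated with compound for 30 min at 22 °C, then Ac-IETD-AFC (800 µM working stock) added for 60 min at 22 °C in the dark. Fluorescence read at Ex 400/Em 505 nm; 8-point 3.16-fold series (40 µM top working stock); IC50 from % inhibition versus standard-inhibitor and DMSO controls.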

Chain of Granzyme B (human lymphocytes) (P10144 21-247): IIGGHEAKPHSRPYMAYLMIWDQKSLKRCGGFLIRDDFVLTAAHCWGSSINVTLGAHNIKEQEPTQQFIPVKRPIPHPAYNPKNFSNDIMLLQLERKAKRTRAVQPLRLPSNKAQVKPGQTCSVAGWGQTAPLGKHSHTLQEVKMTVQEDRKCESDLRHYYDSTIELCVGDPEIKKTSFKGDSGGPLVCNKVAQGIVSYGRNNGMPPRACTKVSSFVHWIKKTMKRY

Row | IC50 | Compound
1 | 0.301 to 1 µM | CC(=O)N[C@H](C(=O)N[C@H]1CCc2cccc3c2N(C1=O)[C@H](C(=O)NCc1c[nH]nn1)C3)C1CCCCC1 [Compound C080, (2S,5S)-5-((S)-2-Acetylamino-2-cyclohexyl-acetylamino)-4-oxo-1,2,4,5,6,7-hexahydro-azepino[3,2,1-hi]indole-2-carboxylic acid (1H-[1,2,3]triazol-4-ylmethyl)-amide]
2 | > 5 µM | CC[C@H](C)[C@H](NC(=O)COCCF)C(=O)N[C@H]1CCc2cccc3c2N(C1=O)[C@H](C(=O)NCc1ccsc1)C3 [Compound C109]
3 | > 5 µM | CC[C@H](C)[C@H](NC(=O)COCCF)C(=O)N[C@H]1CCc2cccc3c2N(C1=O)[C@H](C(=O)NCc1cc(Cl)cc(Cl)c1)C3 [Compound C133, (2S,5S)-5-{(2S,3S)-2-[2-(2-Fluoro-ethoxy)-acetylamino]-3-methyl-pentanoylamino}-4-oxo-1,2,4,5,6,7-hexahydro-azepino[3,2,1-hi]indole-2-carboxylic acid 3,5-dichloro-benzylamide]
4 | 0.301 to 1 µM | CC[C@H](C)[C@H](NC(=O)COCCF)C(=O)N[C@H]1CCc2cccc3c2N(C1=O)[C@H](C(=O)NCB(O)O)C3 [Compound C170, {[((2S,5S)-5-{(2S,3S)-2-[2-(2-Fluoro-ethoxy)-acetylamino]-3-methyl-pentanoylamino}-4-oxo-1,2,4,5,6,7-hexahydro-azepino[3,2,1-hi]indole-2-carbonyl)-amino]-methyl}-boronic acid]
5 | 0.001 to 0.3 µM | CC[C@H](C)[C@H](NC(=O)COCCF)C(=O)N[C@H]1CCc2cccc3c2N(C1=O)[C@H](C(=O)NCc1nn[nH]n1)C3 [Compound C119, (2S,5S)-5-{(2S,3S)-2-[2-(2-Fluoro-ethoxy)-acetylamino]-3-methyl-pentanoylamino}-4-oxo-1,2,4,5,6,7-hexahydro-azepino[3,2,1-hi]indole-2-carboxylic acid (2H-tetrazol-5-ylmethyl)-amide]
6 | > 5 µM | CC(=O)N[C@H](C(=O)N[C@H]1CCc2cccc3c2N(C1=O)[C@H](C(=O)N[C@@H](CC(=O)O)C(=O)O)C3)C(C)C [Compound C092, (S)-2-{[(2S,5S)-5-((S)-2-Acetylamino-3-methyl-butyrylamino)-4-oxo-1,2,4,5,6,7-hexahydro-azepino[3,2,1-hi]indole-2-carbonyl]-amino}-succinic acid]
7 | > 5 µM | CC[C@H](C)[C@H](NC(=O)COCCF)C(=O)N[C@H]1CCc2cccc3c2N(C1=O)[C@H](C(=O)NCc1nc(O)n[nH]1)C3 [Compound C164, (2S,5S)-5-{(2S,3S)-2-[2-(2-Fluoro-ethoxy)-acetylamino]-3-methyl-pentanoylamino}-4-oxo-1,2,4,5,6,7-hexahydro-azepino[3,2,1-hi]indole-2-carboxylic acid (5-hydroxy-2H-[1,2,4]triazol-3-ylmethyl)-amide]
8 | > 5 µM | CC[C@H](C)[C@H](NC(=O)COCCF)C(=O)N[C@H]1CCc2cccc3c2N(C1=O)[C@H](C(=O)NCc1ccncc1)C3 [Compound C123, (2S,5S)-5-{(2S,3S)-2-[2-(2-Fluoro-ethoxy)-acetylamino]-3-methyl-pentanoylamino}-4-oxo-1,2,4,5,6,7-hexahydro-azepino[3,2,1-hi]indole-2-carboxylic acid (pyridin-4-ylmethyl)-amide]
9 | > 5 µM | CC[C@H](C)[C@H](NC(=O)COCCF)C(=O)N[C@H]1CCc2cccc3c2N(C1=O)[C@H](C(=O)NCc1ncn[nH]1)C3 [Compound C163, (2S,5S)-5-{(2S,3S)-2-[2-(2-Fluoro-ethoxy)-acetylamino]-3-methyl-pentanoylamino}-4-oxo-1,2,4,5,6,7-hexahydro-azepino[3,2,1-hi]indole-2-carboxylic acid (2H-[1,2,4]triazol-3-ylmethyl)-amide]
10 | > 5 µM | CC[C@H](C)[C@H](NC(=O)COCCF)C(=O)N[C@H]1CCc2cccc3c2N(C1=O)[C@H](C(=O)NCc1cnc[nH]1)C3 [Compound C110, (2S,5S)-5-{(2S,3S)-2-[2-(2-Fluoro-ethoxy)-acetylamino]-3-methyl-pentanoylamino}-4-oxo-1,2,4,5,6,7-hexahydro-azepino[3,2,1-hi]indole-2-carboxylic acid (3H-imidazol-4-ylmethyl)-amide]
11 | > 5 µM | CC[C@H](C)[C@H](NC(=O)COCCF)C(=O)N[C@H]1CCc2cccc3c2N(C1=O)[C@H](C(=O)NCc1ccco1)C3 [Compound C105, (2S,5S)-5-{(2S,3S)-2-[2-(2-Fluoro-ethoxy)-acetylamino]-3-methyl-pentanoylamino}-4-oxo-1,2,4,5,6,7-hexahydro-azepino[3,2,1-hi]indole-2-carboxylic acid (furan-2-ylmethyl)-amide]

The next lines start with the compound.

Row | Compound | IC50
12 | O=C(Cc1csc2ccccc12)N[C@@H](Cc1ccc(O)cc1)C(=O)N[C@H]1CCc2cccc3c2N(C1=O)[C@H](C(=O)NCc1c[nH]nn1)C3 [Compound C010, (2S,5S)-5-[(S)-2-(2-Benzo[b]thiophen-3-yl-acetylamino)-3-(4-hydroxy-phenyl)-propionylamino]-4-oxo-1,2,4,5,6,7-hexahydro-azepino[3,2,1-hi]indole-2-carboxylic acid (1H-[1,2,3]triazol-4-ylmethyl)-amide] | > 5 µM
13 | O=C(O)CC[C@H](NC(=O)c1ccccc1)C(=O)N[C@H]1CCc2cccc3c2N(C1=O)[C@H](C(=O)NCc1c[nH]nn1)C3 [Compound C041, (S)-4-Benzoylamino-4-{(2S,5S)-4-oxo-2-[(1H-[1,2,3]triazol-4-ylmethyl)-carbamoyl]-1,2,4,5,6,7-hexahydro-azepino[3,2,1-hi]indol-5-ylcarbamoyl}-butyric acid] | > 5 µM
14 | O=C(N[C@@H](CO)C(=O)N[C@H]1CCc2cccc3c2N(C1=O)[C@H](C(=O)NCc1c[nH]nn1)C3)c1ccccc1 [Compound C040, (2S,5S)-5-((S)-2-Benzoylamino-3-hydroxy-propionylamino)-4-oxo-1,2,4,5,6,7-hexahydro-azepino[3,2,1-hi]indole-2-carboxylic acid (1H-[1,2,3]triazol-4-ylmethyl)-amide] | > 5 µM
15 | CC([C@H](NC(=O)c1ccccc1)C(=O)N[C@H]1CCc2cccc3c2N(C1=O)[C@H](C(=O)NCc1c[nH]nn1)C3)C(F)(F)F (stereo partly drawn) [Compound C055, (2S,5S)-5-((S)-2-Benzoylamino-4,4,4-trifluoro-3-methyl-butyrylamino)-4-oxo-1,2,4,5,6,7-hexahydro-azepino[3,2,1-hi]indole-2-carboxylic acid (1H-[1,2,3]triazol-4-ylmethyl)-amide] | 0.001 to 0.3 µM
16 | O=C(Cc1csc2ccccc12)N[C@H](C(=O)N[C@H]1CCc2cccc3c2N(C1=O)[C@H](C(=O)NCc1c[nH]nn1)C3)C1CCCC1 [Compound C075, (2S,5S)-5-[(S)-2-(2-Benzo[b]thiophen-3-yl-acetylamino)-2-cyclopentyl-acetylamino]-4-oxo-1,2,4,5,6,7-hexahydro-azepino[3,2,1-hi]indole-2-carboxylic acid (1H-[1,2,3]triazol-4-ylmethyl)-amide] | 0.001 to 0.3 µM
17 | CC(=O)N[C@@H](CO)C(=O)N[C@H]1CCc2cccc3c2N(C1=O)[C@H](C(=O)NCc1c[nH]nn1)C3 [Compound C029, (2S,5S)-5-((S)-2-Acetylamino-3-hydroxy-propionylamino)-4-oxo-1,2,4,5,6,7-hexahydro-azepino[3,2,1-hi]indole-2-carboxylic acid (1H-[1,2,3]triazol-4-ylmethyl)-amide] | > 5 µM
18 | O=C(Cc1ccccc1)N[C@@H](Cc1ccc(F)cc1)C(=O)N[C@H]1CCc2cccc3c2N(C1=O)[C@H](C(=O)NCc1c[nH]nn1)C3 [Compound C022, (2S,5S)-5-[(S)-3-(4-Fluoro-phenyl)-2-phenylacetylamino-propionylamino]-4-oxo-1,2,4,5,6,7-hexahydro-azepino[3,2,1-hi]indole-2-carboxylic acid (1H-[1,2,3]triazol-4-ylmethyl)-amide] | > 5 µM
19 | COc1ccccc1C(=O)N[C@H](C(=O)N[C@H]1CCc2cccc3c2N(C1=O)[C@H](C(=O)NCc1c[nH]nn1)C3)C(C)C [Compound C063, (2S,5S)-5-[(S)-2-(2-Methoxy-benzoylamino)-3-methyl-butyrylamino]-4-oxo-1,2,4,5,6,7-hexahydro-azepino[3,2,1-hi]indole-2-carboxylic acid (1H-[1,2,3]triazol-4-ylmethyl)-amide] | 0.001 to 0.3 µM
20 | O=C(Cc1csc2ccccc12)N[C@@H](CO)C(=O)N[C@H]1CCc2cccc3c2N(C1=O)[C@H](C(=O)NCc1c[nH]nn1)C3 [Compound C007, (2S,5S)-5-[(S)-2-(2-Benzo[b]thiophen-3-yl-acetylamino)-3-hydroxy-propionylamino]-4-oxo-1,2,4,5,6,7-hexahydro-azepino[3,2,1-hi]indole-2-carboxylic acid (1H-[1,2,3]triazol-4-ylmethyl)-amide] | > 5 µM
21 | CC(=O)N[C@H](C(=O)N[C@H]1CCc2cccc3c2N(C1=O)[C@H](C(=O)NCc1c[nH]nn1)C3)c1ccccc1 [Compound C031, (2S,5S)-5-((S)-2-Acetylamino-2-phenyl-acetylamino)-4-oxo-1,2,4,5,6,7-hexahydro-azepino[3,2,1-hi]indole-2-carboxylic acid (1H-[1,2,3]triazol-4-ylmethyl)-amide] | 1 to 5 µM
22 | CC(C)[C@H](NC(=O)c1cccc(F)c1)C(=O)N[C@H]1CCc2cccc3c2N(C1=O)[C@H](C(=O)NCc1c[nH]nn1)C3 [Compound C048, (2S,5S)-5-[(S)-2-(3-Fluoro-benzoylamino)-3-methyl-butyrylamino]-4-oxo-1,2,4,5,6,7-hexahydro-azepino[3,2,1-hi]indole-2-carboxylic acid (1H-[1,2,3]triazol-4-ylmethyl)-amide] | 0.001 to 0.3 µM
23 | O=C(O)CC[C@H](NC(=O)Cc1csc2ccccc12)C(=O)N[C@H]1CCc2cccc3c2N(C1=O)[C@H](C(=O)NCc1c[nH]nn1)C3 [Compound C008, (S)-4-(2-Benzo[b]thiophen-3-yl-acetylamino)-4-{(2S,5S)-4-oxo-2-[(1H-[1,2,3]triazol-4-ylmethyl)-carbamoyl]-1,2,4,5,6,7-hexahydro-azepino[3,2,1-hi]indol-5-ylcarbamoyl}butyric acid] | > 5 µM

— patent US11667645B2, “Granzyme B directed imaging and therapy” (CytoSite Biopharma Inc., priority 2018, dated 2023)
